Source: patent US8183262B2, “Pyridine derivatives as mGluR2 antagonists” (Hoffmann-La Roche Inc., priority 2007, dated 2012)

SMILES | melting point
Cc1cc(-c2ccc(C(F)(F)F)cc2)cc(-c2ccnc(-c3cccc(N)c3)c2)n1 [Example 307, 3-[6-Methyl-4-(4-trifluoromethyl-phenyl)-[2,4′]bipyridinyl-2′-yl]-phenylamine] | 162 °C (dec.)
Cc1cc(-c2ccc(C(F)(F)F)cc2)nc(-c2ccnc(-c3cccc(S(N)(=O)=O)c3)n2)c1 [Example 308, 3-{4-[4-Methyl-6-(4-trifluoromethyl-phenyl)-pyridin-2-yl]-pyrimidin-2-yl}-benzenesulfonamide] | > 250 °C
Cc1cc(-c2ccc(C(F)(F)F)cc2)nc(-c2ccnc(-c3cccc(S(N)(=O)=O)c3)c2)c1 [Example 309, 3-[4-Methyl-6-(4-trifluoromethyl-phenyl)-[2,4′]bipyridinyl-2′-yl]-benzenesulfonamide] | 238 °C
Cc1cc(-c2ccc(C(F)(F)F)cc2)nc(-c2cccc(-c3cccc(S(N)(=O)=O)c3)n2)c1 [Example 310, 3-[4′-Methyl-6′-(4-trifluoromethyl-phenyl)-[2,2′]bipyridinyl-6-yl]-benzenesulfonamide] | 229 °C
Cc1nc(-c2cn(-c3cc(-c4ccc(C(F)(F)F)cc4)cc(C(F)(F)F)n3)cn2)sc1S(N)(=O)=O [Example 312, 4-Methyl-2-{1-[6-trifluoromethyl-4-(4-trifluoromethyl-phenyl)-pyridin-2-yl]-1H-imidazol-4-yl}-thiazole-5-sulfonic acid amide] | 170 °C (dec.)
NS(=O)(=O)c1ccc(-c2cn(-c3cc(-c4ccc(C(F)(F)F)cc4)cc(C(F)(F)F)n3)cn2)s1 [Example 314, 5-{1-[6-Trifluoromethyl-4-(4-trifluoromethyl-phenyl)-pyridin-2-yl]-1H-imidazol-4-yl}-thiophene-2-sulfonic acid amide] | 237 °C (dec.)
Cc1cc(-c2ccc(C(F)(F)F)cc2)cc(-c2ccnc(-c3ccc(S(N)(=O)=O)s3)n2)n1 [Example 315, 5-{4-[6-Methyl-4-(4-trifluoromethyl-phenyl)-pyridin-2-yl]-pyrimidin-2-yl}-thiophene-2-sulfonic acid amide] | > 250 °C
Cc1cc(-c2ccc(C(F)(F)F)cc2)cc(-c2ccnc(-c3ccc(S(N)(=O)=O)s3)c2)n1 [Example 316, 5-[6-Methyl-4-(4-trifluoromethyl-phenyl)-[2,4′]bipyridinyl-2′-yl]-thiophene-2-sulfonic acid amide] | > 250 °C
Cc1cc(-c2ccc(C(F)(F)F)cc2)cc(-c2cccc(-c3ccc(S(N)(=O)=O)s3)n2)n1 [Example 317, 5-[6′-Methyl-4′-(4-trifluoromethyl-phenyl)-[2,2′]bipyridinyl-6-yl]-thiophene-2-sulfonic acid amide] | 243 °C (dec.)
CC(C)(C)NS(=O)(=O)c1ccc(-c2cc(-c3cc(C(F)(F)F)cc(-c4ccc(C(F)(F)F)cc4)n3)ccn2)s1 [Example 319, 5-[4-Trifluoromethyl-6-(4-trifluoromethyl-phenyl)-[2,4′]bipyridinyl-2′-yl]-thiophene-2-sulfonic acid tert-butylamide] | 220 °C
NS(=O)(=O)c1ccc(-c2cc(-c3cc(C(F)(F)F)cc(-c4ccc(C(F)(F)F)cc4)n3)ccn2)s1 [Example 321, 5-[4-Trifluoromethyl-6-(4-trifluoromethyl-phenyl)-[2,4′]bipyridinyl-2′-yl]-thiophene-2-sulfonic acid amide] | 97 °C (dec.)
Cc1cc(-c2ccc(C(F)(F)F)cc2)nc(-c2ccnc(-c3ccc(S(N)(=O)=O)s3)c2)c1 [Example 323, 5-[4-Methyl-6-(4-trifluoromethyl-phenyl)-[2,4′]bipyridinyl-2′-yl]-thiophene-2-sulfonic acid amide] | 228 °C (dec.)
Cc1cc(-c2ccc(C(F)(F)F)cc2)cc(-c2nc(-c3ccc(S(=O)(=O)NC(C)(C)C)s3)cs2)n1 [Example 324, 5-{2-[6-Methyl-4-(4-trifluoromethyl-phenyl)-pyridin-2-yl]-thiazol-4-yl}-thiophene-2-sulfonic acid tert-butylamide] | 171 °C
Cc1cc(-c2ccc(C(F)(F)F)cc2)cc(-c2ccnc(-c3cccc(N)c3)n2)n1 [Example 326, 3-{4-[6-Methyl-4-(4-trifluoromethyl-phenyl)-pyridin-2-yl]-pyrimidin-2-yl}-phenylamine] | 167 °C
Cc1cc(-c2ccc(C(F)(F)F)cc2)cc(-c2cccc(-c3cccc(N)c3)n2)n1 [Example 327, 3-[6′-Methyl-4′-(4-trifluoromethyl-phenyl)-[2,2′]bipyridinyl-6-yl]-phenylamine] | 167 °C
COc1cc(-c2cc(C)nc(-c3ccnc(-c4cccc(S(=O)(=O)NC(C)(C)C)c4)c3)c2)ccc1C(F)(F)F [Example 336, N-tert-Butyl-3-[4-(3-methoxy-4-trifluoromethyl-phenyl)-6-methyl-[2,4′]bipyridinyl-2′-yl]-benzenesulfonamide] | 189 °C
COc1cc(-c2cc(C)nc(-c3ccnc(-c4ccc(S(=O)(=O)NC(C)(C)C)s4)c3)c2)ccc1C(F)(F)F [Example 339, 5-[4-(3-Methoxy-4-trifluoromethyl-phenyl)-6-methyl-[2,4′]bipyridinyl-2′-yl]-thiophene-2-sulfonic acid tert-butylamide] | 209 °C (dec.)
COc1cc(-c2cc(C)nc(-c3ccnc(-c4cccc(S(N)(=O)=O)c4)c3)c2)ccc1C(F)(F)F [Example 340, 3-[4-(3-Methoxy-4-trifluoromethyl-phenyl)-6-methyl-[2,4′]bipyridinyl-2′-yl]-benzenesulfonamide] | 233 °C (dec.)
COc1cc(-c2cc(C)nc(-c3ccnc(-c4ccc(S(N)(=O)=O)s4)c3)c2)ccc1C(F)(F)F [Example 341, 5-[4-(3-Methoxy-4-trifluoromethyl-phenyl)-6-methyl-[2,4′]bipyridinyl-2′-yl]-thiophene-2-sulfonic acid amide] | 261 °C (dec.)
Cc1cc(-c2ccc(C(F)(F)F)cc2)cc(-c2cccc(-c3csc(N)n3)c2)n1 [Example 342, 4-{3-[6-Methyl-4-(4-trifluoromethyl-phenyl)-pyridin-2-yl]-phenyl}-thiazol-2-ylamine] | > 250 °C
Cc1cc(-c2ccc(C(F)(F)F)cc2)cc(-c2cccc(-c3csc(NS(=O)(=O)NC(=O)OC(C)(C)C)n3)c2)n1 [Example 344, N-(tert-Butoxycarbonyl)-N′-(4-{3-[6-methyl-4-(4-trifluoromethyl-phenyl)-pyridin-2-yl]-phenyl}-thiazol-2-yl)-sulfamide] | 152 °C (dec.)
Cc1cc(-c2ccc(C(F)(F)F)cc2)cc(-c2ccnc(-c3cccc(S(=O)(=O)N4CCSCC4)c3)c2)n1 [Example 347, 6-Methyl-2′-[3-(thiomorpholine-4-sulfonyl)-phenyl]-4-(4-trifluoromethyl-phenyl)-[2,4′]bipyridinyl] | 156 °C (dec.)
Cc1cc(-c2ccc(C(F)(F)F)cc2)cc(-c2ccnc(-c3cccc(S(=O)(=O)NCCO)c3)c2)n1 [Example 348, N-(2-Hydroxy-ethyl)-3-[6-methyl-4-(4-trifluoromethyl-phenyl)-[2,4′]bipyridinyl-2′-yl]-benzenesulfonamide] | 103 °C (dec.)
